Results on four molecules are retold here after ChEMBL document CHEMBL4680144, “N-thiadiazole-4-hydroxy-2-quinolone-3-carboxamides bearing heteroaromatic rings as novel antibacterial agents: Design, synthesis, biological evaluation and target identification” (Eur J Med Chem, 2020).

pIC50: −log10 of the molar value. Values after ≈ are worked out from the molar mass of the structure shown.

The term MIC denotes the lowest concentration that inhibits growth of the organism. A word on the pIC50: it is the IC50 on a negative log10 scale, so that one unit is a factor of ten.

Experiment [1] deals with Staphylococcus aureus. As to the kind of experiment: Antibacterial activity against wild type methicillin-sensitive Staphylococcus aureus ATCC 29213 assessed as inhibition of bacterial growth incubated for 18 to 24 hrs by broth microdilution method. It is filed as functional. Particulars: time 18-24 hrs. (In general: Broth dilution looks for growth in wells or tubes with falling amounts of substance.)

Experiment [2] relates to Staphylococcus aureus. As to the kind of experiment: Antibacterial activity against methicillin-resistant Staphylococcus aureus clinical isolate 15-1 assessed as inhibition of bacterial growth incubated for 18 to 24 hrs by broth microdilution method. It is filed as functional. Particulars: time 18-24 hrs.
The subject of experiment [3] is Staphylococcus aureus. Put plainly: Antibacterial activity against methicillin-resistant Staphylococcus aureus clinical isolate 15-2 assessed as inhibition of bacterial growth incubated for 18 to 24 hrs by broth microdilution method. It is filed as functional. As to conditions: time 18-24 hrs.
For experiment [4], the system named is Staphylococcus aureus. Put plainly: Antibacterial activity against methicillin-resistant Staphylococcus aureus clinical isolate 15-3 assessed as inhibition of bacterial growth incubated for 18 to 24 hrs by broth microdilution method. It is filed as functional. As to conditions: time 18-24 hrs.
Experiment [5] relates to Staphylococcus aureus. As to the kind of experiment: Antibacterial activity against methicillin-resistant Staphylococcus aureus clinical isolate 15-6 assessed as inhibition of bacterial growth incubated for 18 to 24 hrs by broth microdilution method. It counts as functional. Particulars: time 18-24 hrs.
The test system of experiment [6] is Staphylococcus aureus. Put plainly: Antibacterial activity against methicillin-resistant Staphylococcus aureus clinical isolate 15-7 assessed as inhibition of bacterial growth incubated for 18 to 24 hrs by broth microdilution method. It is filed as functional. As to conditions: time 18-24 hrs.
For experiment [7], the system named is Staphylococcus aureus. As to the kind of experiment: Antibacterial activity against methicillin-resistant Staphylococcus aureus clinical isolate 15-8 assessed as inhibition of bacterial growth incubated for 18 to 24 hrs by broth microdilution method. Particulars: time 18-24 hrs. It counts as functional.
Experiment [8] relates to Staphylococcus aureus. Put plainly: Antibacterial activity against methicillin-resistant Staphylococcus aureus clinical isolate 15-9 assessed as inhibition of bacterial growth incubated for 18 to 24 hrs by broth microdilution method. It counts as functional. Particulars: time 18-24 hrs.
Experiment [9] relates to Staphylococcus aureus. As to the kind of experiment: Antibacterial activity against methicillin resistant and vancomycin-intermediate sensitive Staphylococcus aureus ATCC 700699 assessed as inhibition of bacterial growth incubated for 18 to 24 hrs by broth microdilution method. It is filed as functional. Particulars: time 18-24 hrs.
The test system of experiment [10] is Staphylococcus aureus. Put plainly: Antibacterial activity against methicillin resistant and vancomycin-intermediate sensitive Staphylococcus aureus ATCC 700788 assessed as inhibition of bacterial growth incubated for 18 to 24 hrs by broth microdilution method. It is filed as functional. As to conditions: time 18-24 hrs.
The subject of experiment [11] is Staphylococcus epidermidis. Put plainly: Antibacterial activity against methicillin-sensitive Staphylococcus epidermidis clinical isolate 15-3 assessed as inhibition of bacterial growth incubated for 18 to 24 hrs by broth microdilution method. It is filed as functional. Particulars: time 18-24 hrs.
Experiment [12] relates to Staphylococcus epidermidis. As to the kind of experiment: Antibacterial activity against methicillin-sensitive Staphylococcus epidermidis clinical isolate 15-4 assessed as inhibition of bacterial growth incubated for 18 to 24 hrs by broth microdilution method. It counts as functional. Particulars: time 18-24 hrs.
Experiment [13] relates to Staphylococcus epidermidis. As to the kind of experiment: Antibacterial activity against methicillin-resistant Staphylococcus epidermidis clinical isolate 15-1 assessed as inhibition of bacterial growth incubated for 18 to 24 hrs by broth microdilution method. It counts as functional. As to conditions: time 18-24 hrs.
The subject of experiment [14] is Staphylococcus epidermidis. Put plainly: Antibacterial activity against methicillin-resistant Staphylococcus epidermidis clinical isolate 15-2 assessed as inhibition of bacterial growth incubated for 18 to 24 hrs by broth microdilution method. It counts as functional. Particulars: time 18-24 hrs.
The test system of experiment [15] is Staphylococcus epidermidis. As to the kind of experiment: Antibacterial activity against methicillin-resistant Staphylococcus epidermidis clinical isolate 15-3 assessed as inhibition of bacterial growth incubated for 18 to 24 hrs by broth microdilution method. It is filed as functional. As to conditions: time 18-24 hrs.
Experiment [16] relates to Enterococcus faecalis. Put plainly: Antibacterial activity against Enterococcus faecalis clinical isolate 15-1 assessed as inhibition of bacterial growth incubated for 18 to 24 hrs by broth microdilution method. It counts as functional. Particulars: time 18-24 hrs.
Experiment [17] has as its system Enterococcus faecalis. Put plainly: Antibacterial activity against Enterococcus faecalis clinical isolate 15-2 assessed as inhibition of bacterial growth incubated for 18 to 24 hrs by broth microdilution method. It counts as functional. Particulars: time 18-24 hrs.
Experiment [18] deals with Enterococcus faecium. As to the kind of experiment: Antibacterial activity against Enterococcus faecium clinical isolate 15-1 assessed as inhibition of bacterial growth incubated for 18 to 24 hrs by broth microdilution method. It counts as functional. As to conditions: time 18-24 hrs.
The subject of experiment [19] is Enterococcus faecium. As to the kind of experiment: Antibacterial activity against Enterococcus faecium clinical isolate 15-2 assessed as inhibition of bacterial growth incubated for 18 to 24 hrs by broth microdilution method. It is filed as functional. As to conditions: time 18-24 hrs.
Experiment [20] relates to Enterococcus faecalis. Put plainly: Antibacterial activity against vancomycin-resistant Enterococcus faecalis ATCC 51299 assessed as inhibition of bacterial growth incubated for 18 to 24 hrs by broth microdilution method. It is filed as functional. Particulars: time 18-24 hrs.
The subject of experiment [21] is Enterococcus faecalis. Put plainly: Antibacterial activity against vancomycin-resistant Enterococcus faecalis ATCC 700802 assessed as inhibition of bacterial growth incubated for 18 to 24 hrs by broth microdilution method. It is filed as functional. Particulars: time 18-24 hrs.
Experiment [22] deals with Enterococcus faecalis. Put plainly: Antibacterial activity against vancomycin-resistant Enterococcus faecalis ATCC 51575 assessed as inhibition of bacterial growth incubated for 18 to 24 hrs by broth microdilution method. It is filed as functional. Particulars: time 18-24 hrs.
A short description of experiment [23]: Inhibition of Staphylococcus aureus Gyrase B using linear pBR322 DNA as substrate incubated for 30 mins in presence of ATP by ADP-Glo assay. For orientation: ADP-Glo first removes unused ATP, then detects ADP through luciferase.
The test system of the next experiment is HepG2. Put plainly: Cytotoxicity against human HepG2 cells assessed as reduction in cell viability after 72 hrs by sulforhodamine B assay. Particulars: HepG2, 72 h. It counts as cell-based. For orientation: Sulforhodamine B stains cellular protein and so reports cell mass.
Another experiment relates to HUVEC. As to the kind of experiment: Cytotoxicity against HUVEC assessed as reduction in cell viability after 72 hrs by sulforhodamine B assay. It counts as cell-based. Particulars: Homo sapiens.

For `CCn1c(=O)c(C(=O)Nc2nnc(-c3cccnc3)s2)c(O)c2ccccc21`, the minimum inhibitory concentration (MIC) was determined as 0.39 µg/mL (≈ 0.991 µM) in the experiment with Staphylococcus aureus [1]; 0.5 µg/mL (≈ 1.27 µM) in the experiment on Staphylococcus aureus [2]; 0.5 µg/mL (≈ 1.27 µM) in the experiment on Staphylococcus aureus [3]; 0.5 µg/mL (≈ 1.27 µM) in the experiment with Staphylococcus aureus [4]; 0.5 µg/mL (≈ 1.27 µM) in the experiment on Staphylococcus aureus [5]; 0.5 µg/mL (≈ 1.27 µM) with Staphylococcus aureus [6]. Moreover, the MIC in the experiment with Staphylococcus aureus [7] is 0.5 µg/mL (≈ 1.27 µM); in the experiment on Staphylococcus aureus [8] it was 0.5 µg/mL (≈ 1.27 µM); in the experiment with Staphylococcus aureus [9], 1 µg/mL (≈ 2.54 µM); in the experiment on Staphylococcus aureus [10] it was 1 µg/mL (≈ 2.54 µM); in experiment [11], 2 µg/mL (≈ 5.08 µM); in [12] it was 1 µg/mL (≈ 2.54 µM). Besides, the minimum inhibitory concentration (MIC) in experiment [13] was 1 µg/mL (≈ 2.54 µM); in experiment [14], 1 µg/mL (≈ 2.54 µM); in experiment [15], 1 µg/mL (≈ 2.54 µM); in the experiment on Enterococcus faecalis [16], over 64 µg/mL; in the experiment with Enterococcus faecalis [17], over 64 µg/mL; in the experiment on Enterococcus faecium [18], over 64 µg/mL. Besides, the MIC in the experiment on Enterococcus faecium [19], in the experiment on Enterococcus faecalis [20], in the experiment on Enterococcus faecalis [21] and in the experiment with Enterococcus faecalis [22] was over 64 µg/mL in each case. Besides, the negative logarithm of the IC50 (pIC50) in experiment [23] is 6.62.

With `CC(=O)O[C@H]1C(=O)[C@@]2(C)[C@H]([C@H](OC(=O)c3ccccc3)[C@]3(O)C[C@H](OC(=O)[C@H](O)[C@@H](NC(=O)c4ccccc4)c4ccccc4)C(C)=C1C3(C)C)[C@]1(OC(C)=O)CO[C@@H]1C[C@@H]2O` [PACLITAXEL], the pIC50 in the experiment with HepG2 was 8.05; in the experiment with HUVEC, 8.89.

For `CCn1c(=O)c(C(=O)Nc2nnc(-c3cscn3)s2)c(O)c2ccccc21`, the minimum inhibitory concentration (MIC) amounted to 0.78 µg/mL (≈ 1.95 µM) in the experiment on Staphylococcus aureus [1]; 4 µg/mL (≈ 10 µM) with Staphylococcus aureus [2]; 4 µg/mL (≈ 10 µM) in the experiment with Staphylococcus aureus [3]; 4 µg/mL (≈ 10 µM) in the experiment on Staphylococcus aureus [4]; 4 µg/mL (≈ 10 µM) in the experiment with Staphylococcus aureus [5]; 4 µg/mL (≈ 10 µM) in the experiment with Staphylococcus aureus [6]. For the same molecule, the minimal inhibitory concentration (MIC) with Staphylococcus aureus [7] came out at 4 µg/mL (≈ 10 µM); with Staphylococcus aureus [8] it was 4 µg/mL (≈ 10 µM); in the experiment with Staphylococcus aureus [9], 4 µg/mL (≈ 10 µM); in the experiment on Staphylococcus aureus [10], 4 µg/mL (≈ 10 µM); in experiment [11] it was 8 µg/mL (≈ 20 µM); in experiment [12] it was 4 µg/mL (≈ 10 µM). Besides, the minimal inhibitory concentration (MIC) in [13] is 4 µg/mL (≈ 10 µM); in experiment [14], 8 µg/mL (≈ 20 µM); in [15] it was 4 µg/mL (≈ 10 µM); with Enterococcus faecalis [16], 4 µg/mL (≈ 10 µM); in the experiment on Enterococcus faecalis [17] it was 4 µg/mL (≈ 10 µM); in the experiment on Enterococcus faecium [18] it was 8 µg/mL (≈ 20 µM). Moreover, the minimal inhibitory concentration (MIC) with Enterococcus faecium [19] worked out at 4 µg/mL (≈ 10 µM); in the experiment with Enterococcus faecalis [20] it was 32 µg/mL (≈ 80.1 µM); with Enterococcus faecalis [21], 32 µg/mL (≈ 80.1 µM); with Enterococcus faecalis [22], 32 µg/mL (≈ 80.1 µM). The pIC50 in experiment [23] was 6.80.

For the molecule `CCCc1nnc(NC(=O)c2c(O)c3ccccc3n(CC)c2=O)s1`, the minimum inhibitory concentration (MIC) with Staphylococcus aureus [1] amounted to 0.39 µg/mL (≈ 1.09 µM); in the experiment with Staphylococcus aureus [2], 2 µg/mL (≈ 5.58 µM); in the experiment with Staphylococcus aureus [3], 2 µg/mL (≈ 5.58 µM); with Staphylococcus aureus [4] it was 2 µg/mL (≈ 5.58 µM); in the experiment with Staphylococcus aureus [5], 2 µg/mL (≈ 5.58 µM); in the experiment on Staphylococcus aureus [6], 4 µg/mL (≈ 11.2 µM). Moreover, the MIC came to 2 µg/mL (≈ 5.58 µM) with Staphylococcus aureus [7]; 4 µg/mL (≈ 11.2 µM) in the experiment with Staphylococcus aureus [8]; 4 µg/mL (≈ 11.2 µM) with Staphylococcus aureus [9]; 4 µg/mL (≈ 11.2 µM) in the experiment on Staphylococcus aureus [10]; 2 µg/mL (≈ 5.58 µM) in [11]; 2 µg/mL (≈ 5.58 µM) in experiment [12]. Besides, the MIC in experiment [13] was 2 µg/mL (≈ 5.58 µM); in experiment [14] it was 4 µg/mL (≈ 11.2 µM); in [15], 2 µg/mL (≈ 5.58 µM); with Enterococcus faecalis [16], 4 µg/mL (≈ 11.2 µM); in the experiment on Enterococcus faecalis [17], 4 µg/mL (≈ 11.2 µM); with Enterococcus faecium [18], 2 µg/mL (≈ 5.58 µM). For the same molecule, the MIC stood at 4 µg/mL (≈ 11.2 µM) with Enterococcus faecium [19], 8 µg/mL (≈ 22.3 µM) with Enterococcus faecalis [20], 8 µg/mL (≈ 22.3 µM) with Enterococcus faecalis [21] and 8 µg/mL (≈ 22.3 µM) in the experiment on Enterococcus faecalis [22]. In experiment [23], the pIC50 was 6.57.
